Ends that are not written are not given here. Peptide text beside a SMILES is read from it. * marks the point of attachment. Oleoyl = CCCCCCCC/C=C\CCCCCCCC(=O)*; HOOC(CH2)6CO = O=C(O)CCCCCCC(=O)*; Palmitoyl = CCCCCCCCCCCCCCCC(=O)*; Myristoyl = CCCCCCCCCCCCCC(=O)*; Lauroyl = CCCCCCCCCCCC(=O)*
Tests used:
[1] = tested on: human leukemia cancer cell line (CCRF-CEM); test: Cytotoxicity (MTS proliferation assay) of peptides in CCRF-CEM cells; assay type: cell-based
Description: (§1) All bioassays were performed in triplicate.
(§2) The linear and cyclic peptides at concentrations (5, 10, 25, 50 and 100 µM) were added to the cells and incubated at 37 °C with 5% carbon dioxide for 72 h. After 72 h of incubation, the pH of media were tested. […] Then 20 µL of MTS reagent was added to each well. […] The […] of the formazan product was measured at 490 nm using a Spectra Max M2 microplate spectrophotometer. The percentage of cell survival was calculated as [(OD value of cells treated with the test mixture of compounds) − (OD value of culture medium)]/[(OD value of control cells) − (OD value of culture medium)] × 100%.

[2] = tested on: human ovarian adenocarcinoma (SK-OV-3) cells; test: Cytotoxicity (MTS proliferation assay) of peptides in SK-OV-3 cells; assay type: cell-based
Description: as §1, §2

[3] = tested on: CCRF-CEM cells; test: Antiproliferative assay of anticancer drugs using C20-(HR)4 in CCRF-CEM cells; settings: drug 5 µM + C20-(HR)4 50 µM, 72 h, vs drug alone
[4] = tested on: SK-OV-3 cells; test: Antiproliferative assay of anticancer drugs using C20-(HR)4 in SK-OV-3 cells; assay type: cell-based, human; settings: SK-OV-3 (for doxorubicin, epirubicin per b1 and b46; not restated for the 1.5 fold sentence); drug 5 µM + C20-(HR)4 50 µM; 72 h; vs drug alone
Description: as §1

[5] = SK-OV-3, up to / at 50 µM peptide

Compound	cytotoxicity (in words) ([1]; 100 µM peptide)	cytotoxicity (in words) ([1]; up to / at 50 µM peptide)	cytotoxicity (in words) ([2]; SK-OV-3, 100 µM peptide)	cytotoxicity (in words) [2, 5]	further results
CCCCCCCC/C=C\CCCCCCCC(=O)N[C@@H](Cc1c[nH]cn1)C(=O)N[C@@H](CCCNC(=N)N)C(=O)N[C@@H](Cc1c[nH]cn1)C(=O)N[C@@H](CCCNC(=N)N)C(=O)N[C@@H](Cc1c[nH]cn1)C(=O)N[C@@H](CCCNC(=N)N)C(=O)N[C@@H](Cc1c[nH]cn1)C(=O)N[C@@H](CCCNC(=N)N)C(=O)O [C18-(HR)4] (Oleoyl-HRHRHRHR-OH)	mild cytotoxicity	not toxic	mild cytotoxicity	not toxic	cytotoxicity (in words) ([1]; up to / at 50 µM peptide, listed as C18): did not show cytotoxicity; cytotoxicity (in words) ([2]; SK-OV-3, up to / at 50 µM peptide, listed as C18): did not show cytotoxicity
CC(=O)O[C@H]1C(=O)[C@@]2(C)[C@H]([C@H](OC(=O)c3ccccc3)[C@]3(O)C[C@H](OC(=O)[C@H](O)[C@@H](NC(=O)c4ccccc4)c4ccccc4)C(C)=C1C3(C)C)[C@]1(OC(C)=O)CO[C@@H]1C[C@@H]2O [paclitaxel]					improvement of the drug's anti-proliferating potency by C20-(HR)4 [3]: did not improve
CCCCCCCCCCCCCC(=O)N[C@@H](Cc1c[nH]cn1)C(=O)N[C@@H](CCCNC(=N)N)C(=O)N[C@@H](Cc1c[nH]cn1)C(=O)N[C@@H](CCCNC(=N)N)C(=O)N[C@@H](Cc1c[nH]cn1)C(=O)N[C@@H](CCCNC(=N)N)C(=O)N[C@@H](Cc1c[nH]cn1)C(=O)N[C@@H](CCCNC(=N)N)C(=O)O [C14-(HR)4] (Myristoyl-HRHRHRHR-OH)	mild cytotoxicity	not toxic	mild cytotoxicity	not toxic	cytotoxicity (in words) ([1]; up to / at 50 µM peptide, listed as C14): did not show cytotoxicity; cytotoxicity (in words) ([2]; SK-OV-3, up to / at 50 µM peptide, listed as C14): did not show cytotoxicity
COc1cc([C@@H]2c3cc4c(cc3[C@@H](O[C@@H]3O[C@@H]5CO[C@@H](C)O[C@H]5[C@H](O)[C@H]3O)[C@H]3COC(=O)[C@H]23)OCO4)cc(OC)c1O [etoposide]					improvement of the drug's anti-proliferation potency / toxicity upon loading (physical mixture) with C20-(HR)4 [4]: one and half; improvement of the drug's anti-proliferating potency by C20-(HR)4 [3]: did not improve
Ac-HRHRHRHR [C2-(HR)4]		not toxic		not toxic	
N=C(N)NCCC[C@H](NC(=O)[C@H](Cc1c[nH]cn1)NC(=O)[C@H](CCCNC(=N)N)NC(=O)[C@H](Cc1c[nH]cn1)NC(=O)[C@H](CCCNC(=N)N)NC(=O)[C@H](Cc1c[nH]cn1)NC(=O)[C@H](CCCNC(=N)N)NC(=O)[C@H](Cc1c[nH]cn1)NC(=O)CCCCCCC(=O)O)C(=O)O [C8-(HR)4] ({HOOC(CH2)6CO}-HRHRHRHR-OH)	mild cytotoxicity	not toxic	mild cytotoxicity	not toxic	cytotoxicity (in words) ([1]; up to / at 50 µM peptide, listed as C8): did not show cytotoxicity; cytotoxicity (in words) ([2]; SK-OV-3, up to / at 50 µM peptide, listed as C8): did not show cytotoxicity
CCCCCCCCCCCC(=O)N[C@@H](Cc1c[nH]cn1)C(=O)N[C@@H](CCCNC(=N)N)C(=O)N[C@@H](Cc1c[nH]cn1)C(=O)N[C@@H](CCCNC(=N)N)C(=O)N[C@@H](Cc1c[nH]cn1)C(=O)N[C@@H](CCCNC(=N)N)C(=O)N[C@@H](Cc1c[nH]cn1)C(=O)N[C@@H](CCCNC(=N)N)C(=O)O [C12-(HR)4] (Lauroyl-HRHRHRHR-OH)	mild cytotoxicity	not toxic	mild cytotoxicity	not toxic	cytotoxicity (in words) ([1]; up to / at 50 µM peptide, listed as C12): did not show cytotoxicity; cytotoxicity (in words) ([2]; SK-OV-3, up to / at 50 µM peptide, listed as C12): did not show cytotoxicity
CCCCCCCCCCCCCCCC(=O)N[C@@H](Cc1c[nH]cn1)C(=O)N[C@@H](CCCNC(=N)N)C(=O)N[C@@H](Cc1c[nH]cn1)C(=O)N[C@@H](CCCNC(=N)N)C(=O)N[C@@H](Cc1c[nH]cn1)C(=O)N[C@@H](CCCNC(=N)N)C(=O)N[C@@H](Cc1c[nH]cn1)C(=O)N[C@@H](CCCNC(=N)N)C(=O)O [C16-(HR)4] (Palmitoyl-HRHRHRHR-OH)		significant reduction in the cell viability		significant reduction in the cell viability	cytotoxic effect ([1]; 10 µM peptide, 72 h, MTS): 0%; reduction in cell viability ([2]; SK-OV-3 (sentence speaks of both cell lines), 50 and 100 µM peptide, respectively, 72 h, MTS): 35–70%; cytotoxic effect / reduction of proliferation ([2]; SK-OV-3, 10 µM peptide, 72 h, MTS): 0%; reduction of proliferation ([2]; SK-OV-3, 50 µM peptide): 11%
